# Measurements from ChEMBL document CHEMBL5154811, “Discovery of SPH5030, a Selective, Potent, and Irreversible Tyrosine Kinase Inhibitor for HER2-Amplified and HER2-Mutant Cancer Treatment” (J Med Chem, 2022).
# Legend:
# [1] = Metabolic stability in human liver microsomes assessed as half life at 1 uM preincubated for 5 mins followed by NADPH addition by LC-MS/MS analysis; assay type: ADME, Microsome
# BaF3 [2] = assay: Antitumor activity against mouse BaF3 cells harbouring HER2 A775_G776insYVMA xenografted in BALB/c nude mouse assessed as tumor growth inhibition at 10 mg/kg/day, po qd measured for 13 days relative to control; assay type: functional; details: BaF3, 312 h, time 13 day, read-out: TGI
# [3] = biological target: Receptor tyrosine-protein kinase erbB-2 (Homo sapiens, UniProt P04626); assay: Inhibition of wild type human GST-tagged HER2 (676 to end residues) expressed in baculovirus infected Sf9 cells incubated for 30 mins in presence of ATP by HTRF analysis
# Chain of Receptor tyrosine-protein kinase erbB-2 (Homo sapiens, UniProt P04626) (P04626 whole entry): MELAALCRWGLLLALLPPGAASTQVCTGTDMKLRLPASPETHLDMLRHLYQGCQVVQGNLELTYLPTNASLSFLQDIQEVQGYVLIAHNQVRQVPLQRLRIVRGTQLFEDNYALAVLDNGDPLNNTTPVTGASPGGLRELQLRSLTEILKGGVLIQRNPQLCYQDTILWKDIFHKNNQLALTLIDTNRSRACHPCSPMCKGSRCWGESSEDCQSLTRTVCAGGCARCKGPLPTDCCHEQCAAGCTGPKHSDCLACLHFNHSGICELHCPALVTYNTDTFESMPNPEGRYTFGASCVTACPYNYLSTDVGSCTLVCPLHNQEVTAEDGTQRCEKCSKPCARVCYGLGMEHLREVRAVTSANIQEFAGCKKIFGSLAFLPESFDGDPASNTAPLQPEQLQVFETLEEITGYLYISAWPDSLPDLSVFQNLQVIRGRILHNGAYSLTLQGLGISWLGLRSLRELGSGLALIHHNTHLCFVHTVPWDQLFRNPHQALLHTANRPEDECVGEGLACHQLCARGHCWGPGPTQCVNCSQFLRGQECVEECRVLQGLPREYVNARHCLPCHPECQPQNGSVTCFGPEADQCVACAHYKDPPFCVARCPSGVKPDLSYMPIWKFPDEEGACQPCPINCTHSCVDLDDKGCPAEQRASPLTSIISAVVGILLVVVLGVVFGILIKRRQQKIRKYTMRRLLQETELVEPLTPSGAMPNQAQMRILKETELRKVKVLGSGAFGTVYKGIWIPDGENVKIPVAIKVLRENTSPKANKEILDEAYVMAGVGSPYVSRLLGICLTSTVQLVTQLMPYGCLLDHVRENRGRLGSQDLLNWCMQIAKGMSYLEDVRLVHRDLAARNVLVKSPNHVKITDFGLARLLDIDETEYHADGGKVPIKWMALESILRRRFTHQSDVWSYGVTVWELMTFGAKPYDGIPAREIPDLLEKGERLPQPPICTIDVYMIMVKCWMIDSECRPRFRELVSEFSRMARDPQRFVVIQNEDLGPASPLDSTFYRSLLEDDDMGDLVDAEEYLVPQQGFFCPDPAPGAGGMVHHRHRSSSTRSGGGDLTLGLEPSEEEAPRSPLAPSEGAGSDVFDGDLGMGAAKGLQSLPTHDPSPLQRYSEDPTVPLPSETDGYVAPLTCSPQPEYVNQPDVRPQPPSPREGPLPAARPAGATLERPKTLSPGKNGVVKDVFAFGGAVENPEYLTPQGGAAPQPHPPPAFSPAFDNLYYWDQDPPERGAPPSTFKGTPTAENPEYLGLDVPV
# SK-BR-3 = assay: Antiproliferative activity against human SK-BR-3 cells overexpressing wild type HER2 assessed as cell growth inhibition incubated for 72 hrs by Celltiter-Glo assay; assay type: functional, cell-based; details: SK-BR-3, 72 h
# BT-474 [4] = assay: Antitumor activity against human BT-474 cells xenografted in BALB/c nude mouse assessed as tumor growth inhibition by measuring relative tumor growth at 10 mg/kg/day, po administered once daily for 21 days by caliper method relative to control; assay type: functional; details: time 21 day
# [5] = Tmax in Sprague-Dawley rat at 10 mg/kg, po measured upto 1440 mins by LC/MS/MS analysis; assay type: ADME, organism-based; details: in vivo
# [6] = Clearance in cynomolgus monkey at 1 mg/kg, iv measured upto 1440 mins by LC/MS/MS analysis; assay type: ADME, organism-based, Macaca fascicularis; details: in vivo
# BT-474 [7] = assay: Antitumor activity against human BT-474 cells xenografted in BALB/c nude mouse assessed as tumor growth inhibition by measuring relative tumor growth at 20 mg/kg/day, po administered once daily for 21 days by caliper method relative to control; assay type: functional; details: time 21 day
# [8] = Toxicity in BALB/c nude mouse xenografted with human NCI-N87 cells assessed as mortality at 5 to 40 mg/kg, po administered once daily for 21 days; assay type: organism-based; details: in vivo, 504 h, dose 5-40 mg/kg, time 21 day
# BaF3 [9] = assay: Antitumor activity against mouse BaF3 cells harbouring HER2 A775_G776insYVMA mutant xenografted in BALB/c nude mouse assessed as tumor growth inhibition by measuring relative tumor growth at 10 mg/kg, po qd for 13 days by caliper method relative to control; assay type: functional; details: time 13 day
# NCI-H441 = assay: Antiproliferative activity against human NCI-H441 cells assessed as cell growth inhibition incubated for 72 hrs by Celltiter-Glo assay; assay type: functional, cell-based; details: NCI-H441, 72 h
# NCI-N87 [10] = assay: Antitumor activity against human NCI-N87 cells xenografted in BALB/c nude mouse assessed as tumor growth inhibition by measuring relative tumor growth at 10 mg/kg/day, po administered once daily for 21 days by caliper method relative to control; assay type: functional; details: time 21 day
# [11] = Half life in ICR mouse at 10 mg/kg, po measured upto 1440 mins by LC/MS/MS analysis; assay type: ADME, organism-based; details: in vivo
# [12] = Cmax in cynomolgus monkey at 15 mg/kg, po measured upto 1440 mins by LC/MS/MS analysis; assay type: ADME, organism-based, Macaca fascicularis; set-up: dose 15 mg/kg, time < 1440 min, route po; details: in vivo
# [13] = Tmax in cynomolgus monkey at 15 mg/kg, po measured upto 1440 mins by LC/MS/MS analysis; assay type: ADME, organism-based, Macaca fascicularis; details: in vivo
# NCI-N87 [14] = assay: Antitumor activity against human NCI-N87 cells xenografted in BALB/c nude mouse assessed as tumor growth inhibition at 10 mg/kg/day, po administered once daily for 21 days relative to control; assay type: functional; details: NCI-N87, 504 h, time 21 day, read-out: TGI
# BaF3 [15] = assay: Antitumor activity against mouse BaF3 cells harbouring HER2 A775_G776insYVMA mutant xenografted in BALB/c nude mouse assessed as tumor growth inhibition by measuring relative tumor growth at 20 mg/kg, po qd for 13 days by caliper method relative to control; assay type: functional; details: time 13 day
# COLO-678 = assay: Antiproliferative activity against human COLO-678 cells assessed as cell growth inhibition incubated for 72 hrs by Celltiter-Glo assay; assay type: functional, cell-based; details: COLO-678, 72 h
# BaF3 [16] = assay: Antitumor activity against mouse BaF3 cells harbouring HER2 A775_G776insYVMA mutant xenografted in BALB/c nude mouse assessed as tumor growth inhibition at 20 mg/kg, po qd measured for 13 days relative to control; assay type: functional; details: BaF3, 312 h, time 13 day, read-out: TGI
# [17] = Clearance in Sprague-Dawley rat at 3 mg/kg, iv measured upto 1440 mins by LC/MS/MS analysis; assay type: ADME, organism-based; details: in vivo
# [18] = Cmax in Sprague-Dawley rat at 10 mg/kg, po measured upto 1440 mins by LC/MS/MS analysis; assay type: ADME, organism-based; set-up: time < 1440 min, dose 10 mg/kg, route po; details: in vivo
# [19] = biological target: Receptor tyrosine-protein kinase erbB-2 (Homo sapiens, UniProt P04626, D769H); assay: Inhibition of HER2 D769H mutant (unknown origin) incubated for 120 mins in presence of 33P-ATP by P81 ion exchange cellulose chromatography
# Chain of Receptor tyrosine-protein kinase erbB-2 (Homo sapiens, UniProt P04626, D769H) (P04626 23-1255 D769H limits assumed): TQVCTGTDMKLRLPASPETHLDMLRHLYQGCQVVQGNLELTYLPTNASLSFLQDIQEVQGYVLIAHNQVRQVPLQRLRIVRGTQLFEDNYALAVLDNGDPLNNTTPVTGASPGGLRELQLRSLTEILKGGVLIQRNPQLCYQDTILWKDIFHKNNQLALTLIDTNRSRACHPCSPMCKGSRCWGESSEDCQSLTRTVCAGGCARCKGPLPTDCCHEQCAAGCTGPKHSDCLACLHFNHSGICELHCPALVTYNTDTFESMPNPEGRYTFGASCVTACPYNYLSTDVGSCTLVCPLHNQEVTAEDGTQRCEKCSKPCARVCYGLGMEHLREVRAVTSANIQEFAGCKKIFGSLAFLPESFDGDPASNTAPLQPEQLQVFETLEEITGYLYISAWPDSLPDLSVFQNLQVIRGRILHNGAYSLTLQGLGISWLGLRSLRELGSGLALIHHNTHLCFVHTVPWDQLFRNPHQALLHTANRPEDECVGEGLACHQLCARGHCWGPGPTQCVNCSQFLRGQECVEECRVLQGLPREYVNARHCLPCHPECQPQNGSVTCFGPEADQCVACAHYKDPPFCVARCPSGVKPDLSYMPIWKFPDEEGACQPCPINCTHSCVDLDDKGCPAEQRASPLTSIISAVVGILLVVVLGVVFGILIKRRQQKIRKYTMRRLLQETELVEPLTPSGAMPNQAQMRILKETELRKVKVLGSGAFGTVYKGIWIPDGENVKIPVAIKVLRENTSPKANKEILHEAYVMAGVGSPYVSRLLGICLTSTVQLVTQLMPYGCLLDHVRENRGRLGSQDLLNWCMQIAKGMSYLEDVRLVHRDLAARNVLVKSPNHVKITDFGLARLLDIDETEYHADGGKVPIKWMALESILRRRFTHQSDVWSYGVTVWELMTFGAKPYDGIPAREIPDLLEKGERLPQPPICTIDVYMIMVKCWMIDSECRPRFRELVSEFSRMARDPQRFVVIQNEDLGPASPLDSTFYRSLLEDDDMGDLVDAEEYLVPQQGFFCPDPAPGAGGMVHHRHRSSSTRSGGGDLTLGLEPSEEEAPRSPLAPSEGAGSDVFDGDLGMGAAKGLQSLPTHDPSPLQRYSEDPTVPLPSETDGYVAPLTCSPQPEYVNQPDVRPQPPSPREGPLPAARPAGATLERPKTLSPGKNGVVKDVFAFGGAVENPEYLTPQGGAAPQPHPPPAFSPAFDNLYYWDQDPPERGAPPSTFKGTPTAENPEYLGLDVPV
# BaF3 [20] = assay: Antiproliferative activity against mouse BaF3 cells harbouring HER2 […] mutant assessed as inhibition of cell growth incubated for 72 hrs by Celltiter-Glo assay; assay type: functional, cell-based; details: BaF3, 72 h
# [21] = Antiproliferative activity against human KM12-Luc cells assessed as cell growth inhibition incubated for 72 hrs by Celltiter-Glo assay; assay type: functional, cell-based
# BT-474 [22] = assay: Antitumor activity against human BT-474 cells xenografted in BALB/c nude mouse assessed as tumor growth inhibition by measuring relative tumor growth at 5 mg/kg/day, po administered once daily for 21 days by caliper method relative to control; assay type: functional; details: time 21 day
# [23] = Toxicity in BALB/c nude mouse xenografted with human BT-474 cells assessed as mortality at 5 to 40 mg/kg, po administered once daily for 21 days; assay type: organism-based; details: in vivo, 504 h, dose 5-40 mg/kg, time 21 day
# [24] = Toxicity in BALB/c nude mouse xenografted with human NCI-N87 cells assessed as reduction in body weight at 5 to 40 mg/kg, po administered once daily for 21 days; assay type: organism-based; details: in vivo, 504 h, dose 5-40 mg/kg, time 21 day
# NCI-N87 [25] = assay: Antitumor activity against human NCI-N87 cells xenografted in BALB/c nude mouse assessed as tumor growth inhibition by measuring relative tumor growth at 5 mg/kg/day, po administered once daily for 21 days by caliper method relative to control; assay type: functional; details: time 21 day
structure (smiles),measurement,setting,value
CCOc1cc2ncnc(Nc3ccc(Oc4cc5nncn5cn4)c(C)c3)c2cc1NC(=O)/C(F)=C/[C@H]1CCCN1C,half-life at 1 µM,[1],9.24 h
same,inhibition in vivo at 10 mg/kg/day,BaF3 [2],95%
same,IC50,[3],3.51 nM
same,IC50,SK-BR-3,20.1 nM
same,T/C,BT-474 [4],8.31%
same,Tmax,[5],3.33 h
same,clearance,[6],10.2 mL/min/kg
same,T/C,BT-474 [7],7.68%
same,Activity,[8],Non-Toxic
same,T/C,BaF3 [9],16.66%
same,IC50,NCI-H441,4260 nM
same,T/C,NCI-N87 [10],2.6%
same,half-life,[11],3.6 h
same,Cmax,[12],790 ng/mL
same,Tmax,[13],7.5 h
same,inhibition in vivo at 10 mg/kg/day,NCI-N87 [14],113%
same,T/C,BaF3 [15],6.89%
same,IC50,COLO-678,6070 nM
same,inhibition in vivo at 20 mg/kg,BaF3 [16],107%
same,clearance,[17],13 mL/min/kg
same,Cmax,[18],760 ng/mL
same,IC50,[19],0.42 nM
same,IC50,BaF3 [20],6.3 nM
same,IC50,[21],3600 nM
same,T/C,BT-474 [22],17.68%
same,Activity,[23],Non-Toxic
same,Activity,[24],Non-Toxic
same,T/C,NCI-N87 [25],5.26%
